Values joined by “and” are separate entries in the source; they are usually repeats but may differ in a detail not shown here. Equal entries are not always repeated.
Test system: 922993-354-T-J3-PDC complex spheroids, viability
Assay: Anticancer human tumor 922993-354-T-J3-PDC patient-derived endometrial carcinoma cell line growth inhibition [GQUAD]
Details: for viability, T/C: stronger effect = lower value
Description: DNA G-quadruplex Stabilizer Agents in Combinations in Complex Spheroids
A high-throughput screen of multi-cell type tumor spheroids was designed to identify active combinations of DNA G-quadruplex stabilizer agents and targeted small molecules. Complex spheroids include a stromal component modeled by human endothelial cells (HUVEC) and fibroblasts modeled by human mesenchymal stem cells (MSCs). The concentration ranges selected for each drug and investigational agent were based upon clinically achievable concentrations if the clinical Cmax of the agent was known.
Compounds. The drugs and investigational agents: pidnarulex (CX-5461; NSC782164), APTO-253 (NSC789042), BRACO-19 (NSC847499), peposertib (NSC802822), ceralasertib (NSC780249), elimusertib (NSC800525), camonsertib (NSC841442), AZD-1390 (NSC803789), olaparib (NSC753686), talazoparib (NSC767125), ART-558 (NSC835418), sotorasib (NSC818433), MRTX-1133 (NSC836407), SN-38 (NSC673596), topotecan (NSC609699), etoposide (NSC141540), doxorubicin (NSC123127), gemcitabine (NSC613327), 5-fluorouracil (NSC19893), paclitaxel (NSC125973), vemurafenib (NSC761431), panobinostat (NSC761190), R-306465 (JNJ-16241199; NSC773264), adavosertib (NSC754352), TP-3654 (NSC805149), carboplatin (NSC241240), KSQ-4279 (NSC840948), and staurosporine (NSC755774) were obtained from the National Cancer Institute (NCI) Developmental Therapeutics Program Chemical Repository (34). The FDA-approved anticancer drug set is available from the NCI Developmental Therapeutics Program. […] The stock solutions were prepared in dimethyl sulfoxide (DMSO, Sigma-Aldrich, St. Louis, MO, cat. D2650) at 800-fold the tested concentration and stored at -70 degrees C prior to their use. All drugs and investigational agents were tested over a range starting from a high concentration at or near the clinical Cmax and decreasing in half-log increments. If the clinical Cmax for an agent had not been determined, the highest concentration tested was 10 microM.
2.3 Cell Culture. All cells were maintained in an incubator at 37 degrees C and 5% CO2 with 95% humidity. The PDC lines were cultured according to standard operating procedures established by the NCI PDMR. All PDCs were thawed and cultured in Matrigel-coated flasks prepared with a working solution of 1X Ham's F-12 nutrient mix, without supplementation (Invitrogen, cat. 11765054), 100 U/mL penicillin-streptomycin (Invitrogen, cat. 15140122), and 2.5% Matrigel (Corning Inc., cat. 354248) for the first three passages. The 857933-349-R-J2-PDC line was cultured in 6C/Colon 1B media, which includes advanced DMEM/F-12 (Thermo Fisher Scientific, cat. 12634028), 10 mM HEPES (Thermo Fisher Scientific, cat. 15630080), 1X GlutaMAX supplement (Thermo Fisher Scientific, cat. 35050061), 0.1 mg/mL primocin (InvivoGen, cat. ant-pm-2), 10% defined fetal bovine serum, heat inactivated (HyClone Laboratories Inc., cat. SH30070.03HI), 50% L-WRN conditioned media (ATCC, cat. CRL-3276), 1.25 mM N-Acetyl-L-cysteine (Sigma-Aldrich, cat. A9165), 10 mM nicotinamide (Sigma-Aldrich, cat. N0636), 1X B-27 supplement (Thermo Fisher Scientific, cat. 17504044), 1X N-2 supplement (Thermo Fisher Scientific, cat. 17502048), 10 microM Y-27632 dihydrochloride (Tocris Bioscience, cat. 1254), and 50 ng/mL human EGF recombinant protein (Thermo Fisher Scientific, cat. PHG0311). The 485176-168-R4-J1-PDC line was cultured in Panc media, which includes all 6C/Colon 1B media components plus 100 ng/mL human FGF-10 (Thermo Fisher Scientific, cat. 100-26), 500 nM SB-431542 (Selleckchem, cat. S1067), and gastrin (Tocris, cat. 3006).
[…]

[1] = curve of first compound, second compound 0.0316 µM
[2] = curve of first compound, second compound 0.1 µM
[3] = curve of first compound, second compound 0.316 µM
[4] = curve of first compound, second compound 1 µM
[5] = curve of first compound, second compound 3.16 µM
[6] = curve of first compound, second compound 10 µM
[7] = second compound 0.0316 µM, first compound 0.0316 µM
[8] = second compound 0.0316 µM, first compound 0.1 µM
[9] = second compound 0.0316 µM, first compound 0.316 µM
[10] = second compound 0.0316 µM, first compound 1 µM
[11] = second compound 0.0316 µM, first compound 3.16 µM
[12] = second compound 0.0316 µM, first compound 10 µM
[13] = second compound 0.1 µM, first compound 0.0316 µM
[14] = second compound 0.1 µM, first compound 0.1 µM
[15] = second compound 0.1 µM, first compound 0.316 µM
[16] = second compound 0.1 µM, first compound 1 µM
[17] = second compound 0.1 µM, first compound 3.16 µM
[18] = second compound 0.1 µM, first compound 10 µM
[19] = second compound 0.316 µM, first compound 0.0316 µM
[20] = second compound 0.316 µM, first compound 0.1 µM
[21] = second compound 0.316 µM, first compound 0.316 µM
[22] = second compound 0.316 µM, first compound 1 µM
[23] = second compound 0.316 µM, first compound 3.16 µM
[24] = second compound 0.316 µM, first compound 10 µM
[25] = second compound 1 µM, first compound 0.0316 µM
[26] = second compound 1 µM, first compound 0.1 µM
[27] = second compound 1 µM, first compound 0.316 µM
[28] = second compound 1 µM, first compound 1 µM
[29] = second compound 1 µM, first compound 3.16 µM
[30] = second compound 1 µM, first compound 10 µM
[31] = second compound 3.16 µM, first compound 0.0316 µM
[32] = second compound 3.16 µM, first compound 0.1 µM
[33] = second compound 3.16 µM, first compound 0.316 µM
[34] = second compound 3.16 µM, first compound 1 µM
[35] = second compound 3.16 µM, first compound 3.16 µM
[36] = second compound 3.16 µM, first compound 10 µM
[37] = second compound 10 µM, first compound 0.0316 µM
[38] = second compound 10 µM, first compound 0.1 µM
[39] = second compound 10 µM, first compound 0.316 µM
[40] = second compound 10 µM, first compound 1 µM
[41] = second compound 10 µM, first compound 3.16 µM
[42] = second compound 10 µM, first compound 10 µM
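Also: spheroids exposed to compounds for seven days.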
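For viability, T/C in this document: 100% = DMSO vehicle control viability.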

## CCCS(=O)(=O)Nc1ccc(F)c(C(=O)c2c[nH]c3ncc(-c4ccc(Cl)cc4)cc23)c1F + Cc1cnc(CNC(=O)c2c(=O)c3ccc(N4CCCN(C)CC4)nc3n3c2sc2ccccc23)cn1
[1]
  IC50: > 10000 nM
[2]
  IC50: 777 nM
[3]
  IC50: 37 nM
[4]
  IC50: 64.2 nM
[5]
  IC50: < 31.6 nM
[6]
  IC50: < 31.6 nM
[7]
  viability, T/C: 93.5%
[8]
  viability, T/C: 83.8%
[9]
  viability, T/C: 83.3%
[10]
  viability, T/C: 78.4%
[11]
  viability, T/C: 84.6%
[12]
  viability, T/C: 63.8%
[13]
  viability, T/C: 60.9%
[14]
  viability, T/C: 62.2%
[15]
  viability, T/C: 56.1%
[16]
  viability, T/C: 45.5%
[17]
  viability, T/C: 42.2%
[18]
  viability, T/C: 40%
[19]
  viability, T/C: 51.2%
[20]
  viability, T/C: 40.9%
[21]
  viability, T/C: 42.3%
[22]
  viability, T/C: 47.4%
[23]
  viability, T/C: 34.6%
[24]
  viability, T/C: 46.4%
[25]
  viability, T/C: 51.4%
[26]
  viability, T/C: 52.3%
[27]
  viability, T/C: 46.3%
[28]
  viability, T/C: 36.8%
[29]
  viability, T/C: 47.7%
[30]
  viability, T/C: 48.2%
[31]
  viability, T/C: 39.7%
[32]
  viability, T/C: 47.2%
[33]
  viability, T/C: 43.6%
[34]
  viability, T/C: 42%
[35]
  viability, T/C: 58%
[36]
  viability, T/C: 37.9%
[37]
  viability, T/C: 43.5%
[38]
  viability, T/C: 37%
[39]
  viability, T/C: 36.9%
[40]
  viability, T/C: 35.9%
[41]
  viability, T/C: 37.9%
[42]
  viability, T/C: 20.1%

## Cc1[nH]c2ccccc2c1CCNCc1ccc(/C=C/C(=O)NO)cc1
Compound 0.000999 µM
  viability, T/C: 83.6% and 110% and 88.9%
Compound 0.00316 µM
  viability, T/C: 102% and 93.8% and 74%
Compound 0.00999 µM
  viability, T/C: 70% and 75.6% and 89.6%
Compound 0.0316 µM
  viability, T/C: 101% and 89% and 85.7%
Compound 0.0999 µM
  viability, T/C: 63.2% and 87.7% and 68.7%
Compound 0.316 µM
  viability, T/C: 57.2% and 55.4% and 52.3%
Curve of compound
  IC50: > 316 nM

## CC(C)(O)C1CCC(Nc2ccc3ncc(-c4cccc(C(F)(F)F)c4)n3n2)CC1 (stereo not drawn)
Compound 0.0316 µM
  viability, T/C: 106% and 88.2% and 93.2%
Compound 0.1 µM
  viability, T/C: 81% and 82.6% and 81.6%
Compound 0.316 µM
  viability, T/C: 89.6% and 84.6% and 88.7%
Compound 1 µM
  viability, T/C: 82.9% and 101% and 90.8%
Compound 3.16 µM
  viability, T/C: 78.8% and 68.7% and 81.9%
Compound 10 µM
  viability, T/C: 79.6% and 68% and 98.6%
Curve of compound
  IC50: > 10000 nM

## COc1cccc2c1C(=O)c1c(O)c3c(c(O)c1C2=O)CC(O)(C(=O)CO)CC3OC1CC(N)C(O)C(C)O1 (stereo not drawn)
Compound 0.0316 µM
  viability, T/C: 101% and 78% and 112%
Compound 0.1 µM
  viability, T/C: 85.8% and 98% and 78.3%
Compound 0.316 µM
  viability, T/C: 83.7% and 94.3% and 93%
Compound 1 µM
  viability, T/C: 108% and 71.4% and 89.4%
Compound 3.16 µM
  viability, T/C: 68.2% and 64.5% and 86%
Compound 10 µM
  viability, T/C: 57.2% and 28.9% and 43.5%
Curve of compound
  IC50: > 10000 nM and 4820 nM and 8460 nM

## CC1COCCN1c1cc(-c2ccnn2C)c2ccnc(-c3ccn[nH]3)c2n1 (stereo not drawn) + CN(C)c1ccc(Nc2c3ccc(NC(=O)CCN4CCCC4)cc3nc3cc(NC(=O)CCN4CCCC4)ccc23)cc1
[1]
  IC50: 260 nM
[2]
  IC50: 190 nM
[3]
  IC50: 175 nM
[4]
  IC50: 278 nM
[5]
  IC50: 176 nM
[6]
  IC50: 396 nM
[7]
  viability, T/C: 98.4%
[8]
  viability, T/C: 73.4%
[9]
  viability, T/C: 50.3%
[10]
  viability, T/C: 16.7%
[11]
  viability, T/C: 18%
[12]
  viability, T/C: 20%
[13]
  viability, T/C: 110%
[14]
  viability, T/C: 68.2%
[15]
  viability, T/C: 36.1%
[16]
  viability, T/C: 18.2%
[17]
  viability, T/C: 20.2%
[18]
  viability, T/C: 12.3%
[19]
  viability, T/C: 105%
[20]
  viability, T/C: 58.1%
[21]
  viability, T/C: 46.9%
[22]
  viability, T/C: 16.8%
[23]
  viability, T/C: 16.5%
[24]
  viability, T/C: 19.6%
[25]
  viability, T/C: 84.8%
[26]
  viability, T/C: 64.2%
[27]
  viability, T/C: 54.2%
[28]
  viability, T/C: 22.9%
[29]
  viability, T/C: 19.1%
[30]
  viability, T/C: 21.4%
[31]
  viability, T/C: 119%
[32]
  viability, T/C: 52.7%
[33]
  viability, T/C: 54.3%
[34]
  viability, T/C: 18.2%
[35]
  viability, T/C: 21.3%
[36]
  viability, T/C: 22.4%
[37]
  viability, T/C: 130%
[38]
  viability, T/C: 79.8%
[39]
  viability, T/C: 65.2%
[40]
  viability, T/C: 25.6%
[41]
  viability, T/C: 21.2%
[42]
  viability, T/C: 19.6%

## Cc1[nH]c2ccc(F)cc2c1-c1nc2c3cccnc3c3ncccc3c2[nH]1
Compound 10 µM
  viability, T/C: 106% [middle of 12 runs]
Compound alone, run of 03/18/2024
  IC50: > 10000 nM
Compound alone, run of 03/26/2024
  IC50: > 10000 nM

From PubChem BioAssay AID2060489 (Molecular Pharmacology Branch, DTP, NCI, 2025)
